Laboratory results published in patent US20040115167A1, “Drug delivery device and method having coated microprojections incorporating vasoconstrictors” (priority 2002, published 2004).
Read-outs that look alike come from different tables or passages of the source.

Experiments:
hairless guinea pig [1] = settings: for blood flow at the application site: LDV 2 minutes after removal
Description: The Guinea pig albumin was used as a model drug or vaccine. The Guinea pig albumen and epinephrine were dry coated on the microprojections of a microprojection array. A microprojection array having long microprojections (600 microns) were chosen in order to maximize bleeding so that the efficacy of the vasoconstrictor could be more easily evaluated.
An aqueous coating solution containing 200 mg/ml of guinea pig albumin and 50 mg/ml of epinephrine bitartrate was prepared. A control solution was prepared which contained only 200 mg/mL guinea pig albumin in water and no vasoconstrictor. The microprojection arrays that were used a penetration angle of 80°. The penetration angle is defined as the angle between the two upper penetration edges of the microprojection. There were 72 microprojections/cm^2 and the overall area of the microprojection array was 2 cm^2.
One group of arrays were dipped into each solution and the excess was wicked off by briefly contacting the microprojection array with tissue. The microprojection arrays were then allowed to air-dry overnight at room temperature.
(§1) The systems that were applied comprised a coated microprojection array which was adhered to the center of a low density polyethylene (LDPE) 7 cm^2 disc, coated with a propriety adhesive. Two systems were applied to each hairless guinea pig.
(§2) At the time of application, the skin of the flank of the animal was manually stretched bilaterally (opposing forces applied on both sides of the expected application site). System application was performed with an impact applicator which applied a force of 0.4 J. Following application of the systems, the stretching tension was released.
(§3) Half of the systems were applied for 5 seconds and then removed. The second half of the systems were applied for 2 minutes and then removed. Therefore there were four test conditions with each condition having been tested with four system.
Pictures of the application skin sites were taken 2 minutes after removal of the system. The skin sites were monitored visually for 30 minutes for blanching. Bleeding was evaluated visually from the pictures by estimating the percentage of the microprojection puncture sites that were bleeding. Blood flow (mL/min/100 g) was evaluated with a laser Doppler Velocimeter (LDV) at the skin site immediately prior to application of the system and 2 minutes following removal of the system. For each guinea pig, the blood flow measurement taken prior to system application was subtracted from the second measurement (normalized blood flow).

hairless guinea pig [2] = settings: skin sites monitored visually for 30 minutes
Description: as §1, §2, §3
Pictures of the application skin sites were taken 2 minutes after removal of the system. The skin sites were monitored visually for 30 minutes for blanching. Bleeding was evaluated visually from the pictures by estimating the percentage of the microprojection puncture sites that were bleeding. Blood flow (mL/min/100 g) was evaluated with a laser Doppler Velocimeter (LDV) at the skin site immediately prior to application of the system and 2 minutes following removal of the system. […]

SMILES: CNC[C@H](O)c1ccc(O)c(O)c1 [epinephrine]
- percentage of microslits that were bleeding (hairless guinea pig [1]; 5-second application, 600 micron microprojection array dry coated with guinea pig albumin 200 mg/ml + epinephrine bitartrate 50 mg/ml, pictures 2 minutes after removal): 20%
- normalized blood flow (erythema at the application site) (hairless guinea pig [1]; FIG. 5, baseline blood flow subtracted): minimizes the erythema
- blood flow at the application site (hairless guinea pig [1]; systems applied for 5 seconds): 30 mls/min/100 grams
- blood flow at the application site (hairless guinea pig [1]; systems applied for 2 minutes): 30 mls/min/100 grams
- percentage of microslits that were bleeding (hairless guinea pig [1]; two-minute application, compared with 5-second application, same coated array): little change in the data
- time blanching was detectable after removal of the microprojection arrays (hairless guinea pig [2]): about 30 minutes
